Laboratory results published in paper PMC8228121, “Super-Cationic Peptide Dendrimers—Synthesis and Evaluation as Antimicrobial Agents” (Antibiotics, 2021).
≈ marks a conversion by molar mass, not a printed value. Like-named read-outs stand apart in the source and are kept apart here. Bridge positions count the residues as written; N and C are the ends. Square brackets hold non-standard residues; d marks the D form. Side chains are listed from the residue outwards. Peptide text beside a SMILES is read from it. I, II: the chains in the order shown. Orn = NCCC[C@H](N)C(=O)O

Legend:
[1] = test system: S. aureus; assay: Effect on bacterial growth curves; type: cell-based; conditions: at MIC, ½ MIC and ¼ MIC
Experimental: (§1) The study of the growth dynamic of the S. aureus, E. coli and P.aeruginosa strains against CAMPDs were assayed with a starting inoculum of 10^6–10^8 CFU/mL in a 10 mL specific falcon tube. The experiment was performed by a real-time reverse-spin bioreactor RTS-1 (Biosan SIA, Riga, Latvia) that applies non-invasive, mechanically driven rotation; thus, the cell suspension is mixed efficiently, mixing and oxygening the culture at 37 °C. Cell growth kinetics were recorded non-invasively in real time from data obtained from a near-infrared optical system, every 15 min.

[2] = test system: E. coli; assay: Effect on bacterial growth curves; type: cell-based; conditions: irrespective of concentration (MIC, ½ MIC and ¼ MIC)
Experimental: as §1

[3] = test system: P. aeruginosa; assay: Effect on bacterial growth curves; type: cell-based
Experimental: as §1

[4] = test system: MRSA (methicillin-resistant S. aureus) isolates; assay: microbe, parasite or virus in culture; type: cell-based; conditions: methicillin-resistant ) isolates
Experimental: (§2) Clinical isolates of CRE, MRSA and VRE were obtained from Lancet Laboratories, Durban, South Africa, with approval BE394/15 from the Biomedical Research Ethical Committee of the University of KwaZulu-Natal. Five reference strains of bacteria, namely Escherichia coli ATCC 25922, Pseudomonas aeruginosa ATCC 27853, Enterococcus faecium ATCC 35667, Staphylococcus aureus ATCC 29213 and Bacillus subtilis ATCC 6051 were supplied by the American Type Culture Collection (ATCC).
(§3) MIC values were determined by the broth microdilution method and the significance of the values obtained was interpreted following the guidelines of the Clinical and Laboratory Standards for Antimicrobial Susceptibility Testing.. The effect of human serum on the antimicrobial effect of the molecules tested was determined in a similar way to the MIC method used above in a solution of 50% human serum plus Mueller–Hinton broth.

[5] = in vitro; conditions: human
Experimental: (§4) Cell viability was evaluated using the colorimetric MTT assay [21]. Human hepatocarcinoma (HepG2) cells and human embryonic kidney 293 (HEK-293) cells used in the drug toxicity assays were obtained from Cellonex (Johannesburg, South Africa). Viable HepG2 and HEK293 cells (20,000 cells/well) were seeded into a 96-well microtiter plate (200 µL) and allowed to attach overnight. The cells were exposed to varying concentrations of the peptides for 24 h. After removal of the treatment medium, 20 µL of MTT salt solution (5 mg/mL in 0.1M phosphate buffer saline (PBS)) and 100 µL of complete cell culture medium (CCM) were added to each well. After a 4 h (37 °C) incubation, the MTT salt solution was discarded and 100 μL of dimethyl sulphoxide (DMSO) were added to each well (1 h, 37 °C). The optical density of the solubilized formazan product was measured at 570 nm (reference λ of 690 nm) using a Bio-tek μQuant spectrophotometer (Winooski, VT, USA). […] GraphPad Prism (V5) (La Jolla, CA, USA) was used to obtain the half maximum inhibitory concentration (IC50) for each compound.

[6] = test system: E. faecium ATCC 35667; assay: microbe, parasite or virus in culture; type: cell-based, Enterococcus faecium
Experimental: as §2, §3

[7] = test system: P. aeruginosa; assay: Time–kill curves; type: cell-based
Experimental: Killing curve assays were performed with a starting inoculum of 6 × 10^6 CFU/mL. […] Antimicrobials were added to 5 mL of bacteria in the exponential phase of growth and incubated at 37 °C with shaking. Samples were obtained aseptically at 0, 1, 2, 4, 6 and 24 h, diluted in Ringer 1/4 and plated on TSA for colony counting. The response of microbial strains to a single antimicrobial was determined by lowering logarithms of viable bacteria. In accordance with Lora-Tamayo et al., an antimicrobial was considered active when a reduction of ≥1 log10 relative to the initial inoculum was observed.

[8] = test system: S. aureus ATCC 29213; assay: microbe, parasite or virus in culture; type: cell-based, Staphylococcus aureus
Experimental: as §2, §3

[9] = MTT cytotoxicity assay; type: cell-based, human; conditions: human, HepG2 cells, HepG2, 24 h exposure
Experimental: as §4

[10] = test system: E. coli ATCC 25822; assay: microbe, parasite or virus in culture; type: cell-based, Escherichia coli
Experimental: as §2, §3

[11] = test system: P. aeruginosa ATCC 27853; assay: microbe, parasite or virus in culture; type: cell-based, Pseudomonas aeruginosa
Experimental: as §2, §3

[12] = test system: B. subtilis ATCC 6051; assay: microbe, parasite or virus in culture; type: cell-based, Bacillus subtilis
Experimental: as §2, §3

[13] = test system: CRE, E. coli isolates; assay: microbe, parasite or virus in culture; type: cell-based; conditions: Escherichia coli
Experimental: as §2, §3

SMILES | IC50 at 24 h [5] [µg/mL] | MBC ([6]; ATCC 35667) [µg/mL] | MIC ([6]; ATCC 35667) [µg/mL] | time–kill: effect on bacterial population ([7]; at MIC) | time–kill: effect on bacterial population ([7]; at ¼ MIC) | time–kill: effect on bacterial population ([7]; at ½ MIC) | MBC ([8]; ATCC 29213) [µg/mL] | MIC ([8]; ATCC 29213) [µg/mL] | IC50 at 24 h [9] [µg/mL] | MBC ([10]; ATCC 25822) [µg/mL] | MIC ([10]; ATCC 25822) [µg/mL] | MBC ([11]; ATCC 27853) [µg/mL] | MIC ([11]; ATCC 27853) [µg/mL] | MBC ([12]; ATCC 6051) [µg/mL] | MIC ([12]; ATCC 6051) [µg/mL] | other results
CC(C)C[C@H](NC(=O)[C@H](CC(C)C)NC(=O)[C@H](CCCN)NC(=O)[C@H](CC(C)C)NC(=O)[C@H](CC(C)C)NC(=O)[C@H](CCCCNC(=O)[C@H](CCCN)NC(=O)[C@H](CC(C)C)NC(=O)[C@H](CCCN)NC(=O)[C@H](CCCCNC(=O)[C@H](CCCN)NC(=O)[C@H](CC(C)C)NC(=O)[C@@H](N)CCCN)NC(=O)[C@H](CCCN)NC(=O)[C@H](CC(C)C)NC(=O)[C@@H](N)CCCN)NC(=O)[C@H](CCCN)NC(=O)[C@H](CC(C)C)NC(=O)[C@H](CCCN)NC(=O)[C@H](CCCCNC(=O)[C@H](CCCN)NC(=O)[C@H](CC(C)C)NC(=O)[C@@H](N)CCCN)NC(=O)[C@H](CCCN)NC(=O)[C@H](CC(C)C)NC(=O)[C@@H](N)CCCN)C(N)=O [G2OLO-L2OL2, (OLO)4(KOLO)2KLLOLL-NH2] (I: H-[Orn]L[Orn]K([Orn-Leu-Orn])[Orn]L[Orn]KLL[Orn]LL-NH2 / II: H-[Orn]L[Orn]K([Orn-Leu-Orn])[Orn]L[Orn]; amide I:8-II:C) | 199 (≈ 65.9 µM) | 8 (≈ 2.65 µM) | 8 (≈ 2.65 µM) | killed all bacteria within the first hour of exposure and regrowth was observed after the second hour | the bacterial population was not totally eliminated | the bacterial population was not totally eliminated | 32 (≈ 10.6 µM) | 32 (≈ 10.6 µM) | 141 (≈ 46.8 µM) | 32 (≈ 10.6 µM) | 32 (≈ 10.6 µM) | 32 (≈ 10.6 µM) | 32 (≈ 10.6 µM) | 32 (≈ 10.6 µM) | 32 (≈ 10.6 µM) | effect on growth curve [1]: negligible; effect on growth curve [2]: abolished bacterial growth; effect on growth curve ([3]; at the MIC): abolished growth; delay in growth ([3]; at ¼ MIC): ~2 h; delay in growth ([3]; at ½ MIC): 10 h; MIC [4]: 64 µg/mL (≈ 21.2 µM)
CC(C)C[C@H](NC(=O)[C@H](CC(C)C)NC(=O)[C@H](CCCNC(=N)N)NC(=O)[C@H](CC(C)C)NC(=O)[C@H](CC(C)C)NC(=O)[C@H](CCCCNC(=O)[C@H](CCCNC(=N)N)NC(=O)[C@H](CC(C)C)NC(=O)[C@H](CCCNC(=N)N)NC(=O)[C@H](CCCCNC(=O)[C@H](CCCNC(=N)N)NC(=O)[C@H](CC(C)C)NC(=O)[C@@H](N)CCCNC(=N)N)NC(=O)[C@H](CCCNC(=N)N)NC(=O)[C@H](CC(C)C)NC(=O)[C@@H](N)CCCNC(=N)N)NC(=O)[C@H](CCCNC(=N)N)NC(=O)[C@H](CC(C)C)NC(=O)[C@H](CCCNC(=N)N)NC(=O)[C@H](CCCCNC(=O)[C@H](CCCNC(=N)N)NC(=O)[C@H](CC(C)C)NC(=O)[C@@H](N)CCCNC(=N)N)NC(=O)[C@H](CCCNC(=N)N)NC(=O)[C@H](CC(C)C)NC(=O)[C@@H](N)CCCNC(=N)N)C(N)=O [G2RLR-L2RL2, (RLR)4(KRLR)2KLLRLL-NH2] (I: H-RLRK([Arg-Leu-Arg])RLRKLLRLL-NH2 / II: H-RLRK([Arg-Leu-Arg])RLR; amide I:8-II:C) | 67.4 (≈ 18.9 µM) | 16 (≈ 4.49 µM) | 16 (≈ 4.49 µM) | reduced the bacterial population to almost zero and no regrowth was appreciated after 24 h | the bacterial population remained partially inhibited at the beginning of the exposure | reduced the bacterial population to almost zero and no regrowth was appreciated after 24 h | 32 (≈ 8.98 µM) | 32 (≈ 8.98 µM) | 102 (≈ 28.7 µM) | 64 (≈ 18 µM) | 64 (≈ 18 µM) | 64 (≈ 18 µM) | 64 (≈ 18 µM) | 16 (≈ 4.49 µM) | 16 (≈ 4.49 µM) | –
C[C@@H](O)[C@H]1C(=O)N2C(C(=O)O)=C(S[C@@H]3CN[C@H](C(=O)N(C)C)C3)[C@H](C)[C@H]12 [Meropenem, reference compound] | – | – | – | – | – | – | – | – | – | – | – | – | – | – | – | MIC ([13]; CRE E. coli isolate IMP JAP): 8 µg/mL (≈ 20.9 µM); MIC ([13]; CRE E. coli isolate KPC L2l): 16 µg/mL (≈ 41.7 µM); MIC ([13]; CRE E. coli isolate NDM4-FEK): > 32 µg/mL; MIC ([13]; CRE E. coli isolate OXA-48 501): 2 µg/mL (≈ 5.22 µM); MIC ([13]; CRE E. coli isolate VIM-1 BM-12): > 32 µg/mL; MIC ([6]; Enterococcus faecium, ATCC35667, E. faecium ATCC 35667, read-out: MIC): < 0.25 µg/mL; MIC ([8]; Staphylococcus aureus, ATCC29213, S. aureus ATCC 29213, read-out: MIC): 0.25 µg/mL (≈ 0.652 µM); MIC ([10]; Escherichia coli, ATCC25822): 0.125 µg/mL (≈ 0.326 µM); MIC ([11]; Pseudomonas aeruginosa, ATCC27853, P. aeruginosa ATCC 27853, read-out: MIC): 1 µg/mL (≈ 2.61 µM); MIC ([12]; Bacillus subtilis, ATCC6051, B. subtilis ATCC 6051, read-out: MIC): 0.062 µg/mL (≈ 0.162 µM)
